From PMC5764437, “Discovery of novel, orally bioavailable, antileishmanial compounds using phenotypic screening” (PLoS Neglected Tropical Diseases, 2017)
Values after ≈ are worked out from the molar mass of the structure shown. Read-outs that look alike come from different tables or passages of the source.

Experiments:
[1] = tested on: L. mexicana intracellular amastigotes; assay: Growth inhibition of intracellular amastigotes in J774A.1 macrophages (Renilla luciferase luminescence); format: cell-based; conditions: Leishmania mexicana, J774.A1; intracellular amastigotes in J774A.1 macrophages; mean ± standard deviation, n = 2; read-out: L. mexicana EC50
Experimental: (§1) L. mexicana (MNYZ/BZ/62/M379) or L. donovani (LdBob strain) parasites expressing the Renilla luciferase gene from a rRNA gene locus were used to infect J774A.1 macrophages. Growth of intracellular amastigotes was measured using a luminescence assay, as detailed previously. The growth inhibitor activities of compounds were tested against bloodstream form Lister 427 T. brucei in 96-well plates containing 1 X 10^5 parasites per well in 0.2 ml HMI-11 medium (Gibco/Thermo Fisher). Compounds (2 μl volumes in DMSO) were added to the parasites using serial 3-fold dilutions to cover a range of concentrations from about 10 μM to 1 nM. After 48 h incubation at 37°C under a humidified 5% CO2 atmosphere, 10 μl of 10% Triton X-100 and 100 X stock SYBR Green I (Sigma-Aldrich) in PBS was added and florescence measured (excitation 497 nm; emission 520 nm) after 1 h incubation in the dark using a Spectra Max Gemini XPS fluorimeter (Molecular Devices). Data were log transformed and EC50 values were determined using GraphPad Prism 6 (GraphPad Software). In the absence of growth inhibiting compounds, the parasites grew from an initial density of 5 X 10^5 cells/mL to ~3 X 10^6 cells/mL.
[…]. These were chosen as candidates for further study. From these 230 compounds, we were able to repurchase 113 from commercial vendors. These compounds were characterized for purity by ultra-performance liquid chromatography using ultraviolet spectroscopy and evaporative light scattering detection and identity by mass spectrometry. All validated compounds were profiled for activity against intracellular amastigotes, the disease-causing stage of the life cycle. Intracellular amastigote activity was determined using a strain of L. mexicana in which the Renilla luciferase gene was integrated into the rRNA locus, allowing robust expression for measuring amastigote growth within cultured macrophages. All 113 compounds were applied at 1 μM concentration for 96 h to J774A.1 macrophages infected with L. mexicana luciferase-expressing parasites. […].
Next, we generated dose-response curves for these 55 compounds against intracellular amastigotes and independently against J774A.1 macrophages to establish the relative potency of each compound against the pathogen and its host cell. […]. The nine remaining compounds, each representing a unique chemical scaffold (compounds 1–9, Fig 3), were designated top hits (Fig 1).

[2] = tested on: Trypanosoma cruzi CL Brener epimastigotes; assay: Growth inhibition of Trypanosoma cruzi epimastigotes (SYBR Green); format: cell-based; conditions: Trypanosoma cruzi; 72 h, 10 μM to 1 nM; read-out: T. cruzi epimastigotes EC50
Experimental: Trypanosoma cruzi CL Brener epimastigotes were obtained from Dr. Fred Buckner of the Department of Medicine at the University of Washington. T. cruzi epimastigotes were grown in liver infusion tryptose medium and seeded in a 96-well plate at 10^5 epimastigotes per well in 100 μl medium. For each well, 1 μl of compound in DMSO at 100X the desired final concentration was added. Epimastigotes were exposed to a range of compound concentrations from 10 μM to 1 nM to determine EC50. Plates were incubated at 26°C for 72 h, then 10 μl 50X SYBR Green in 1% Triton X-100 was added to each well followed by incubation with shaking at room temperature for 30 minutes. Fluorescence was read (excitation 485nm, emission 535nm) with the Victor^2 multiplate reader (PerkinElmer). All data processing and visualization were performed using GraphPad Prism 6 software.

J774A.1 macrophages = assay: Cytotoxicity to J774A.1 macrophages (dose-response); format: cell-based; conditions: Mus musculus, J774.A1; host macrophage; tested up to 10 μM; mean ± standard deviation, n = 2; read-out: J774A.1 EC50
Experimental: Cytotoxicity of compounds to J774.A1 macrophages was determined by dose-response curves as described previously. In the absence of growth inhibitors or DMSO, the macrophages increased in number ~6-fold over 96 h in Minimum Essential Medium, employed for both macrophage infections and the toxicity assays.

[3] = tested on: bloodstream form Lister 427 T. brucei; assay: Growth inhibition of T. brucei bloodstream forms (SYBR Green I); format: cell-based; conditions: bloodstream form, mean ± standard deviation, n = 2, read-out: T. brucei EC50
Experimental: as §1

[4] = tested on: L. donovani intracellular amastigotes; assay: Growth inhibition of intracellular amastigotes in J774A.1 macrophages (Renilla luciferase luminescence); format: cell-based; conditions: Leishmania donovani, J774.A1; intracellular amastigotes in J774A.1 macrophages; mean ± standard deviation, n = 2; read-out: L. donovani EC50
Experimental: as §1

in vitro = conditions: pH 1
Experimental: Compound stocks were 10 mM in DMSO. The internal standard was 5 µM warfarin in methanol. […] 1 ml SGF was added to a 1.1 ml 96-well storage plate and mixed well with 10 µl compound stock. The plate was then incubated at 37 °C and shaken at 60 rpm. […] At each time point, 100 µl was removed to a 1 ml storage plate and 300 µl internal standard was added to quench the reaction. […] The compound was detected by SIR and quantification was based on peak area of test compound and the internal standard.

[5] = Liver microsomal stability, mouse; conditions: female, microsomes, pH 7.4
Experimental: (§2) One part of 10 mM DMSO compound stock was mixed with 4 parts of acetonitrile to make 2 mM diluted compound stock in DMSO and acetonitrile. 29.1 µL diluted compound stock was added to 2.3 mL liver microsomal solution and vortexed to make microsomal solution with compound. […] For the 0 h time point, 450 µL pre-cooled (4 °C) internal standard (10 µM warfarin in methanol) was added to the first three columns before the reaction was initiated. 1.25 ml of microsome assay solution A (Fisher Scientific, #NC9255727) was combined with 0.25 ml of solution B (Fisher Scientific, #NC9016235) in 3.5 ml of potassium phosphate buffer (0.1 M, pH 7.4). 45 µL of this A+B solution was added to each well of the 96-well storage plate (reaction plate). Liquid in the first 3 columns was moved to another storage plate (quenched plate). The reaction plate was then sealed, incubated at 37 °C, and shaken at a speed of 60 rpm. Time points (0.5 h, 1 h, 2 h) were taken. At each time point, 450 µL pre-cooled internal standard was added to 3 rows in the reaction plate, and the liquid was then transferred to the quenched plate. […] 200 µL supernatant was transferred to a 96-well plate and analyzed by ultra-performance liquid chromatography-mass spectrometry (UPLC-MS) (Waters Inc.). The compounds and internal standard were detected by selected ion recording (SIR).

[6] = Parallel Artificial Membrane Permeability Assay (PAMPA); conditions: pH 7.4
Experimental: Parallel Artificial Membrane Permeability Assay (PAMPA) was conducted by Biomek FX lab automation workstation (Beckman Coulter, Inc.) and PAMPA evolution 96 command software (pION Inc.). A 3 µL aliquot of […] test compound stock in DMSO was mixed with 597 µL of isotonic citrate phosphate buffered saline to make diluted test compound. Diluted test compound (150 µL) was transferred to a UV plate (pION Inc.) and the UV spectrum was read as the reference plate. The membrane on a pre-loaded PAMPA sandwich (pION Inc.) was painted with 4 µL GIT lipid (pION Inc.). The acceptor chamber was then filled with 200 µL acceptor solution buffer, (pION Inc.), and the donor chamber was filled with 180 µL diluted test compound. The PAMPA sandwich was assembled, placed on the Gut-Box and stirred for 30 min. The Aqueous Boundary Layer was set to 40 µm for stirring. The UV spectrum (250-500 nm) of the donor and the acceptor solutions were recorded. The permeability coefficient was calculated using PAMPA Evolution 96 Command software (pION Inc.) based on the AUC of the reference plate, the donor plate and the acceptor plate. All compounds were tested in triplicate.

[7] = Liver microsomal stability, human; conditions: both, microsomes, pH 7.4
Experimental: as §2

[8] = Solubility in aqueous buffer; format: physicochemical; conditions: pH 7.4, aqueous buffer, kinetic from dmso stock
Experimental: Solubility assays were carried out on a Biomek FX lab automation workstation (Beckman Coulter, Inc., Fullerton, CA) using μSOL Evolution software (pION Inc.). Compound stock (10 mM in DMSO, 10 μL) was added to 1-propanol (190 μL) to make a reference stock plate. Reference stock solution (5 μL) was mixed with 1-propanol (70 μL) and citrate phosphate buffered saline (pH 7, 75 μL) to make the reference plate which was then measured with UV detection. Test compound stock (10 mM, 6 μL) was added to citrate phosphate buffered saline (594 μL) in a 96-well storage plate and mixed. […] The suspension was then filtered through a 96-well filter plate (pION Inc.). Filtrate (75 μL) was mixed with 1-propanol (75 μL) to make the sample plate, and the UV spectrum (250 nm −500 nm) of the sample plate was recorded. Calculation of solubility was carried out using μSOL Evolution software based on the AUC of the UV spectrum of the sample plate and the reference plate. All compounds were tested in triplicate.

[9] = Liver microsomal stability, rat; conditions: microsomes, pH 7.4
Experimental: as §2

[10] = Caco-2 permeability assay; format: in vitro ADME; conditions: human, pH 7.4; for Papp A→B at 2 h, 10 μmol/L / Papp B→A at 2 h, 10 μmol/L: mean ± standard deviation of three runs; for Papp A→B at 2 h, 10 μmol/L: read-out: Caco-2 (A→B) permeability coefficient; for Papp B→A at 2 h, 10 μmol/L: read-out: Caco-2 (B→A) permeability coefficient
L. mexicana = assay: Efficacy in murine model of cutaneous leishmaniasis (footpad lesion size); format: in vivo; conditions: BALB/c mice infected with L. mexicana; 20 mg/kg daily oral gavage for 10 days from week 4; measured weeks 4–12
Experimental: Female BALB/c mice (~20 g) were injected in one hind footpad with 1 x 10^6 stationary phase promastigotes suspended in 25 μl of phosphate buffered saline (PBS). Four weeks after infection, when a small cutaneous lesion was visible in the injected footpad, cohorts of five mice were treated with either compound or vehicle alone (90 μl), delivered daily for 10 consecutive days by oral gavage using a 20-gauge x 30 mm disposable plastic feeding needle. Vehicle consisted of 10/10/40/39 mixture of ethanol/(PG)/PEG400/PBS plus 1% (weight/volume) 2HβCD (PG is propylene glycol, PEG is polyethylene glycol, 2HβCD is 2-hydroxy-β-cyclodextran). The daily dose for each compound was: compound 4, 25 mg/kg; compound 5, 30 mg/kg; miltefosine, 20 mg/kg. The width of the footpad (top to bottom) was measured with calipers before injection of parasites (day 0) and weekly from weeks 4–12. The width of the uninfected contralateral footpad was also measured each week, and its width was subtracted from that of the infected footpad to determine lesion size.

Row | Compound | EC50 [1] [nM] | EC50 [2] [nM] | EC50 (J774A.1 macrophages) [nM] | EC50 [4] [nM] | half-life at 99 µM (in vitro; simulated gi fluid) [h] | half-life at 20 μM [5] [h] | half-life at 20 μM [7] [h] | solubility at 18 h [8] [µM] | half-life at 20 μM [9] [h] | Papp A→B at 2 h, 10 μmol/L ([10]; Caco-2) [×10⁻⁶ cm/s] | Papp B→A at 2 h, 10 μmol/L ([10]; Caco-2) [×10⁻⁶ cm/s] | further results
1 | Cc1ccc(-c2cc3c(c(OCC4CCCN(C)C4)c2)OCCN(C(=O)Cc2c(C)noc2C)C3)s1 (stereo not shown) [Compound 8] | 23 ± 18 | 330 | 2200 ± 1400 | 1.1 ± 0.8 | – | – | – | – | – | – | – | EC50 ([3]; Trypanosoma brucei): 300 ± 80 nM; EC50 [3]: < 300 nM
2 | Oc1c(C(Nc2ccccn2)c2cccc(Cl)c2Cl)ccc2cccnc12 (stereo not shown) [Compound 9] | 100 ± 10 | 2100 ± 70 | 9000 ± 6000 | 15 ± 9 | – | – | – | – | – | – | – | –
3 | CCCSc1ccc2nc(NC(=O)OC)[nH]c2c1 [albendazole] | – | – | – | – | > 24 | 0.7 | > 4 | 3.8 (≈ 1.01 µg/mL) | 1.62 | – | – | Papp at 30 min, 0.05 µM [6]: 204 ×10⁻⁶ cm/s
4 | NC(=O)N1c2ccccc2C=Cc2ccccc21 [carbamazepine] | – | – | – | – | – | – | – | – | – | 71.8 ± 1.2 | 56.5 ± 3.2 | half-life at 99 µM (in vitro; simulated gastric fluid with pepsin): > 24 h; half-life at 20 μM ([5]; mouse): > 4 h; Papp at 30 min, 0.05 µM ([6]; PAMPA): 95.6 ×10⁻⁶ cm/s; half-life at 20 μM ([7]; human): > 4 h; solubility at 18 h ([8]; citrate phosphate buffered saline): 82.2 µM (≈ 19.4 µg/mL); half-life at 20 μM ([9]; rat): > 4 h; efflux ratio at 2 h, 10 μmol/L ([10]; Caco-2, pH 7.4, Papp B→A / Papp A→B): 0.79
5 | C[C@H]1O[C@@H](O[C@H]2[C@@H](O)C[C@H](O[C@H]3[C@@H](O)C[C@H](O[C@H]4CC[C@@]5(C)[C@H](CC[C@@H]6[C@@H]5C[C@@H](O)[C@]5(C)[C@@H](C7=CC(=O)OC7)CC[C@]65O)C4)O[C@@H]3C)O[C@@H]2C)C[C@H](O)[C@@H]1O [digoxin] | – | – | – | – | > 24 | > 4 | > 4 | 80.3 (≈ 62.7 µg/mL) | > 4 | 4.61 ± 0.46 | 27.1 ± 2.1 | efflux ratio at 2 h, 10 μmol/L ([10]; Caco-2, Papp B→A / Papp A→B): 5.87
6 | CCCCCCCCCCCCCCCCOP(=O)([O-])OCC[N+](C)(C)C [miltefosine, reference compound] | – | – | – | – | – | – | – | – | – | – | – | Cutaneous lesion size (footpad width) (L. mexicana): reduced lesion size from the initial dimension
